The text below walks through data of patent US20090022729A1, “METHODS AND COMPOSITIONS FOR TREATING CARDIAC DYSFUNCTIONS” (priority 2007, published 2009).

For assay [1], the target named is T1, PAR-1 (Homo sapiens, UniProt P25116).
T1 sequence (P25116 22-425): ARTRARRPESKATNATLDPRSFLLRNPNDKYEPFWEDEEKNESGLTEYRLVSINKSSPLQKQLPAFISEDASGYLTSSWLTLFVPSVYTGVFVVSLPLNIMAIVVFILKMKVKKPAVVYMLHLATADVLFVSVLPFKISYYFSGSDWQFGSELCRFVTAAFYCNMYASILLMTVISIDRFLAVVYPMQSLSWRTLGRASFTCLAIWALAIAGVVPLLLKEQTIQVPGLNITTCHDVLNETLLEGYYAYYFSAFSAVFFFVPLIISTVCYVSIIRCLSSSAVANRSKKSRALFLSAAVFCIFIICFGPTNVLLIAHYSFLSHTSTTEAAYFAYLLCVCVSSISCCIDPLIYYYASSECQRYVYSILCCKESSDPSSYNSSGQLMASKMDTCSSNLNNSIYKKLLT
The conditions noted are these: cited from earlier work.

For assay [2], the target named is T1, PAR-1. The conditions noted are these: cited from earlier work. The source holds these as a separate data set.
In a further assay the target is T2, PAR4 (Homo sapiens, UniProt Q96RI0).
T2 sequence (Q96RI0 18-385): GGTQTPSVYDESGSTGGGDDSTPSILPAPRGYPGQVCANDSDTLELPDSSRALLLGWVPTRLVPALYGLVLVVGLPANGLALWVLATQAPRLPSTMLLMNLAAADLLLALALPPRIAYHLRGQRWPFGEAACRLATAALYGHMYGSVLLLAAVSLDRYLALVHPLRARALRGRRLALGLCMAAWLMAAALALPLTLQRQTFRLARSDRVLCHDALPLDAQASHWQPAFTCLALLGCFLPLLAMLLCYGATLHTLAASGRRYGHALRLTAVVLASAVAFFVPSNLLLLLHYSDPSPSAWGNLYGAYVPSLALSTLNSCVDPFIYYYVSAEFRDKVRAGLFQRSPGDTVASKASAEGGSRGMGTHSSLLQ
The conditions noted are these: cited from earlier work.

The target in a further assay is T3, PAR3 (Homo sapiens, UniProt O00254).
T3 sequence (O00254 22-374): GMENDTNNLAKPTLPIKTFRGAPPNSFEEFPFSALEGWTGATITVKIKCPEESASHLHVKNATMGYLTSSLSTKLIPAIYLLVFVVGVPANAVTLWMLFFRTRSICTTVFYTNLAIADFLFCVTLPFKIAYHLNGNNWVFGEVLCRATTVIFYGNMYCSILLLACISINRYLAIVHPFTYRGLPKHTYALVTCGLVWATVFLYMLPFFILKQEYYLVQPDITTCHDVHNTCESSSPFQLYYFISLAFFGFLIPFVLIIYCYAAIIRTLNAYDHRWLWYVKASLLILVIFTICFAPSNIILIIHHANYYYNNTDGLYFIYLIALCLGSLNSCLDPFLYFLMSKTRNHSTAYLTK
The conditions noted are these: cited from earlier work.

Assay [3] concerns the target thrombin (Homo sapiens, UniProt P00734). The conditions noted are these: cited from earlier work.
The next assay concerns the target T4, PAR2 (Homo sapiens, UniProt P55085).
T4 sequence (P55085 26-397): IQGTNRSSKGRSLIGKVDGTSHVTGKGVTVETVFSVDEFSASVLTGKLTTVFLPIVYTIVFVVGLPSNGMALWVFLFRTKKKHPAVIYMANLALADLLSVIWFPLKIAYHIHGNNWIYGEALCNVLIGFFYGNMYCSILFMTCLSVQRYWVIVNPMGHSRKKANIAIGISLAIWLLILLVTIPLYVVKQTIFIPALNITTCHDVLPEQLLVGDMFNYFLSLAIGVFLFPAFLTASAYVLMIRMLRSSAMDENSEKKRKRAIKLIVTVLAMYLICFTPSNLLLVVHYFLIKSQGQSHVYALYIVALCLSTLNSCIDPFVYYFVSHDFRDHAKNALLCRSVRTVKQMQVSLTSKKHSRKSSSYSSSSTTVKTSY
The conditions noted are these: cited from earlier work.

Assay [4] has as its target T5, thrombin (Mus musculus, UniProt P19221).
T5 construct: from tissue; host or cells: wild-type mice in vivo (blood / injured myocardium)
The experiment in a line: short-term cardiac I/R injury model (30 minutes of ischemia and 2 hours of reperfusion). Type of assay: in vivo. The conditions noted are these: WT mice, hirudin vs saline, FIG. 1A. How it is done: Cardiac I/R injury models. For the short-term I/R model (30 minutes of ischemia and 2 hours of reperfusion), the surgical protocol and infarct size determination were performed as described in Palazzo et al. (Am. J. Physiol. 275:H2300-H2307 (1998)) with some modifications. Briefly, intraperitoneal injection of pentobarbital (100 mg/kg) (Abbott Laboratories, Abbott Park, Ill.) was used for anesthesia. Mice were orally intubated to provide artificial ventilation (0.3 mL tidal volume, 120 breaths/minute). The left anterior descending coronary artery was occluded with a 7-0 silk suture (U.S. Surgical Corp., Norwalk, Conn.) passed through PE tubing (U.S. Surgical Corp.) to make a Rumel snare. After 30 minutes of ischemia, the snare was released and the heart was reperfused for 2 hours. Finally, the artery was reoccluded and 4% Evans Blue dye was injected into the aortic root to delineate the area-at-risk (AAR) from not at-risk myocardium (blue). […] The LV, AAR and infarct areas were traced and calculated by computer planimetry (Image J, version 1.21). Infarct volumes were calculated as: [(A1×W1)+(A2×W2)+(A3×W3)+(A4×W4)+(A5×W5)], where A is the area of infarct for the slice denoted by the subscript and W is the weight of the respective section.

On to `NCC[C@H](NC(=O)[C@H](Cc1ccc(F)c(F)c1)NC(=O)Nc1ccc2c(CN3CCCC3)cn(Cc3c(Cl)cccc3Cl)c2c1)C(=O)NCc1ccccc1` [RWJ-56110, (αS)—N-[(1S)-3-amino-1-[[(phenylmethyl)amino]carbonyl]propyl]-α-[[[[[1-(2,6-dichlorophenyl)methyl]-3-(1-pyrrolidinylmethyl)-1H-indol-6-yl]amino]carbonyl]amino]-3,4-difluorobenzenepropanamide], for which the calcium mobilization result on PAR-1 [1] is on record as “interferes with calcium mobilization”. At PAR-1 [2], the “PAR1 antagonist activity and selectivity” value was “potent, selective PAR-1 antagonist”. The “effect on PAR4” value on PAR4 is given as “does not affect”. In addition, on PAR3, the “effect on PAR3” value is reported as “does not affect”. Besides, the “inhibition of thrombin activity” value on thrombin [3] is on record as “does not affect PAR2, PAR3, or PAR4 or inhibit thrombin activity”. In addition, at PAR2, the “effect on PAR2” value is “does not affect”.

On to hirudin, for which, at thrombin [4], the infarct size result is “decreased” and the “size of the area at-risk” value is given as “Neither hirudin treatment nor PAR1 deficiency affected”.
